In data set [1] the test system is cardiomyocyte containing mouse embryoid bodies. As to the kind of experiment: Low-concentration mannitol treatment of cardiomyocyte containing mouse embryoid bodies. Type of data set: cell-based. The following applies: 0.2 M, 72 hours. As for the experimental part:
Additionally, similar to the method described in Example 1, 75 mouse embryonic stem cells per EB were cultured as cell masses for a total of 7 days by the hanging-drop technique using a culture medium [α-MEM (minimum essential medium) (SIGMA), supplemented with 10% FBS (EQUITEC BIO), 100 units/ml penicillin, and 50 μg/ml streptomycin (GIBCO)], whereby the stem cells were differentiated into cell masses containing cardiomyocytes; thereafter, the embryoid bodies were adhered to the culture dish and cultured for another 3-5 days under the conditions of 37° C. and 5% CO2.

The nature of data set [2]: Saccharide concentration and osmotic pressure of hypertonic solutions (measured values). Type of data set: physicochemical. As for the experimental part:
When the hypertonic solution having an osmotic pressure of 370 mOsm/kg or higher is prepared by adding a saccharide to the culture medium, the method of the present invention is characterized in that the hypertonic solution contains the saccharide in 0.1-1 M (mol/L), preferably 0.1-0.6 M (mol/L). The relation between the concentration of saccharide (mol/L) and the osmotic pressure (mOsm/kg) can be approximated by a substantially straight line; a hypertonic solution containing 0.1 M saccharide corresponds to one having an osmotic pressure of approximately 370 mOsm/kg and a hypertonic solution containing 1 M saccharide corresponds to one having an osmotic pressure of approximately 1300-1600 mOsm/kg.
Hypertonic solutions were prepared using various saccharides and the relation between the saccharide concentration and the osmotic pressure is shown in the following table for typical saccharides.

Take `OC[C@@H](O)[C@@H](O)[C@H](O)[C@H](O)CO` [mannitol]: the “State of cells other than cardiomyocytes and of cardiomyocytes” value in data set [1] was “almost all cells other than cardiomyocytes had died and only the cardiomyocytes survived selectively”. Further, the Osmotic pressure in data set [2] (saccharide concentration 0.2 M in culture medium) is listed as roughly 480 mOsm/kg; in data set [2] (saccharide concentration 0.45 M in culture medium), roughly 720 mOsm/kg; in data set [2] (saccharide concentration 0.45 M in culture medium, listed as Mannitol), 717 mOsm/kg; in data set [2] (saccharide concentration 0.6 M in culture medium), 875 mOsm/kg; in data set [2] (saccharide concentration 0.9 M in culture medium), 1234 mOsm/kg.
